Measurements reported in PubChem BioAssay AID1224921 (Broad Institute, 2016).
Activity calls are given as the source filed them. No rule for the calls is given here.

What follows are molecules tested on Clostridioides difficile clinical isolate growth, OD600, 24 h (assay: inhibitors of Clostridioides difficile proliferation – 4-point retest, confirmation (AID 1224921)).
`C[C@@H]1CN([C@@H](C)CO)C(=O)c2cccc(NC(=O)Nc3ccc(F)cc3)c2O[C@@H]1CN(C)Cc1ccc(C(F)(F)F)cc1` gave an AC50 of 2.37 µM. With `CNC[C@@H]1OCCCC[C@H](C)Oc2ccc(NC(=O)Nc3ccc(C(F)(F)F)cc3)cc2C(=O)N([C@H](C)CO)C[C@H]1C` the AC50 was 19.4 µM. Work on `CCC(=O)N[C@@H]1CC[C@@H](CCNC(=O)Nc2ccc(C(F)(F)F)cc2)O[C@H]1CO` yielded an AC50 of 2.75 µM. Molecule `CC(C)NC(=O)N(C)C[C@@H]1Oc2c(NC(=O)Nc3ccc(C(F)(F)F)cc3)cccc2C(=O)N([C@H](C)CO)C[C@@H]1C` has an AC50 of 23.3 µM. With `CCC(=O)N[C@@H]1CC[C@H](CCNC(=O)Nc2ccc(C(F)(F)F)cc2)O[C@H]1CO` the AC50 was 7.27 µM. In the case of `C[C@@H]1CCCCO[C@@H](CN(C)Cc2ccc3c(c2)OCO3)[C@H](C)CN([C@@H](C)CO)C(=O)c2cc(NC(=O)Nc3ccc(C(F)(F)F)cc3)ccc2O1`, the AC50 is reported as > 60 µM (inactive). With `CNC(=O)C[C@H]1CC[C@H]2[C@@H](COC[C@@H](O)CN2C(=O)Nc2ccc(Cl)c(Cl)c2)O1` the AC50 was 2.75 µM. Work on `O=C(NCC[C@H]1CC[C@H](NC(=O)c2cccnc2)[C@@H](CO)O1)Nc1ccc(C(F)(F)F)cc1` yielded an AC50 of 1.79 µM. In the case of `C[C@@H]1CCCCO[C@@H](CN(C)Cc2ccccc2)[C@H](C)CN([C@@H](C)CO)C(=O)c2cc(NC(=O)Nc3ccc(F)cc3)ccc2O1`, the AC50 is reported as > 16 µM (inactive). For `N#C[C@@H]1[C@H](c2ccc(C#Cc3ccc(F)cc3)cc2)[C@@H](CO)N1C(=O)C1CCC1`, the AC50 was > 60 µM (inactive). `O=C(NCC[C@@H]1CC[C@@H](NC(=O)c2cccnc2)[C@H](CO)O1)Nc1ccc(C(F)(F)F)cc1` gave an AC50 of 3.16 µM. For `C[C@@H]1CN([C@@H](C)CO)C(=O)c2cccc(NC(=O)Nc3ccc(C(F)(F)F)cc3)c2O[C@@H]1CN(C)Cc1ccc(-c2ccccc2)cc1`, the AC50 was < 0.5 µM. Molecule `CO[C@@H]1CN(C)C(=O)c2cc(NC(=O)Nc3ccc(Cl)c(Cl)c3)ccc2OC[C@@H](C)NC[C@@H]1C` has an AC50 of 4.25 µM. Molecule `CCCNC(=O)N1[C@@H](C#N)[C@H](c2ccc(C#Cc3ccc(F)cc3)cc2)[C@@H]1CO` has an AC50 of 36.3 µM. With `C[C@H]1CN([C@@H](C)CO)S(=O)(=O)c2ccc(C#Cc3ccc(F)cc3)cc2O[C@@H]1CN(C)C` the AC50 was 34.2 µM. With `CO[C@H]1CN(C)C(=O)c2ccc(NC(=O)Nc3ccc(Cl)c(Cl)c3)cc2OC[C@H](C)NC[C@@H]1C` the AC50 was 1.2 µM. For `O=C(C[C@H]1CC[C@@H]2[C@H](COC[C@H](O)CN2C(=O)Nc2ccc(Cl)c(Cl)c2)O1)NCc1ccc(F)cc1`, the AC50 was 1.91 µM. `CCC(=O)N[C@H]1CC[C@@H](CCNC(=O)Nc2ccc(C(F)(F)F)cc2)O[C@H]1CO` showed an AC50 of 2.41 µM. For `CO[C@H]1CN(C)C(=O)c2ccc(NC(=O)Nc3cc(Cl)cc(Cl)c3)cc2OC[C@@H](C)NC[C@H]1C`, the AC50 was 15.1 µM. In the case of `CO[C@@H]1CN(C)C(=O)c2cc(NC(=O)Nc3ccc(C(F)(F)F)cc3)ccc2OC[C@H](C)NC[C@H]1C`, the AC50 is reported as 17.8 µM. With `O=C(C[C@@H]1CC[C@@H]2[C@H](COC[C@H](O)CN2Cc2ccc(Oc3ccccc3)cc2)O1)N1CCCCC1` the AC50 was 20.6 µM. `CO[C@H]1CN(C)C(=O)c2cc(NC(=O)Nc3ccc(Cl)c(Cl)c3)ccc2OC[C@@H](C)NC[C@H]1C` was tested, and the AC50 was 9.16 µM. With `COCC(=O)N1C[C@H](C)[C@H](OC)CN(C)C(=O)c2ccc(NC(=O)NC(C)C)cc2OC[C@H]1C` the AC50 was > 60 µM (inactive). `CO[C@H](CN(C)C(=O)C1CCOCC1)[C@@H](C)CN(C(=O)Nc1ccc(C(F)(F)F)cc1)[C@@H](C)CO` showed an AC50 of 3.16 µM. Work on `CNC(=O)C[C@@H]1CC[C@@H]2[C@H](COC[C@H](O)CN2C(=O)Nc2ccc(Cl)c(Cl)c2)O1` yielded an AC50 of 3.06 µM. Work on `COc1ccc(CN(C)C[C@H]2OCCCC[C@@H](C)Oc3ccc(NC(=O)Nc4cccc5ccccc45)cc3C(=O)N([C@@H](C)CO)C[C@@H]2C)cc1` yielded an AC50 of 27.4 µM. For `CO[C@H]1CN(C)C(=O)c2ccc(NC(=O)c3cccc(F)c3)cc2OC[C@@H](C)N(C(C)=O)C[C@@H]1C`, the AC50 was > 60 µM (inactive). In the case of `O=C(C[C@H]1CC[C@H]2[C@@H](COC[C@@H](O)CN2C(=O)Nc2ccc(Cl)c(Cl)c2)O1)NCc1ccc(Cl)c(Cl)c1`, the AC50 is reported as 1.08 µM. `C[C@@H]1CN([C@@H](C)CO)C(=O)c2cc(NS(=O)(=O)c3ccc(Cl)cc3)ccc2O[C@@H](C)CCCCO[C@H]1CN(C)CC1CCCCC1` was tested, and the AC50 was 13.1 µM. With `CCCC(=O)Nc1ccc2c(c1)C(=O)N(C)[C@@H]1CC[C@@H](CC(=O)OC)O[C@@H]1CO2` the AC50 was > 60 µM (inactive). `C[C@@H]1CN([C@@H](C)CO)C(=O)Cc2cc(NC(=O)Nc3ccc(C(F)(F)F)cc3)ccc2O[C@H]1CN(C)Cc1ccccc1` showed an AC50 of 17.9 µM. `C[C@H](CO)N1C[C@H](C)[C@@H](CN(C)CC2CCCC2)Oc2ncc(C#CCc3ccccc3)cc2C1=O` was tested, and the AC50 was > 60 µM (inactive). `CC(=O)N[C@@H]1CC[C@H](CCNC(=O)Nc2ccc(C(F)(F)F)cc2)O[C@H]1CO` was tested, and the AC50 was 11.8 µM. Molecule `CO[C@H](CN(C)S(=O)(=O)c1cn(C)cn1)[C@@H](C)CN(C(=O)Nc1ccc(C(F)(F)F)cc1)[C@H](C)CO` has an AC50 of 2.16 µM. For `O=C(C[C@H]1CC[C@H]2[C@@H](COC[C@H](O)CN2C(=O)Nc2ccc(Cl)c(Cl)c2)O1)NCc1ccccc1`, the AC50 was 1.11 µM. `CCC(=O)N[C@@H]1CC[C@@H](CCNC(=O)Nc2ccc(C(F)(F)F)cc2)O[C@@H]1CO` gave an AC50 of 3.9 µM. Work on `C[C@H](CO)N1C[C@H](C)[C@@H](CN(C)C(=O)Nc2ccc(C(F)(F)F)cc2)Oc2ccc(NC(=O)C3CC3)cc2C1=O` yielded an AC50 of 15.5 µM. For `COc1ccccc1CNC(=O)C[C@H]1CC[C@H]2[C@@H](COC[C@@H](O)CN2C(=O)Nc2ccc(C(F)(F)F)cc2)O1`, the AC50 was 2.4 µM. In the case of `O=C(C[C@H]1CC[C@H]2[C@@H](COC[C@@H](O)CN2C(=O)Nc2ccc(C(F)(F)F)cc2)O1)NCC1CCCCC1`, the AC50 is reported as 1.27 µM. `CCNC(=O)C[C@H]1CC[C@@H]2[C@H](COC[C@@H](O)CN2C(=O)Nc2ccc(Cl)c(Cl)c2)O1` was tested, and the AC50 was 4.25 µM. Molecule `COc1ccc(CN(C)C[C@H]2OCCCC[C@@H](C)Oc3ccc(NC(=O)Nc4ccc(C(F)(F)F)cc4)cc3C(=O)N([C@@H](C)CO)C[C@@H]2C)cc1` has an AC50 of 4.74 µM. For `O=C(C[C@@H]1CC[C@@H]2[C@H](COC[C@H](O)CN2C(=O)Nc2cc(Cl)cc(Cl)c2)O1)N1CCCCC1`, the AC50 was 1.41 µM. Molecule `O=C(C[C@H]1CC[C@@H]2[C@H](COC[C@H](O)CN2C(=O)Nc2ccc(C(F)(F)F)cc2)O1)NCC1CCCCC1` has an AC50 of 1.21 µM. `C[C@H](CO)N1C[C@H](C)[C@H](CN(C)CC2CCCCC2)OCCCC[C@H](C)Oc2ccc(NC(=O)Nc3cccc4ccccc34)cc2C1=O` was tested, and the AC50 was 29 µM. In the case of `CNC(=O)C[C@@H]1CC[C@@H]2[C@H](COC[C@@H](O)CN2C(=O)Nc2ccc(Cl)c(Cl)c2)O1`, the AC50 is reported as 2.31 µM. For `CO[C@H]1CN(C)C(=O)c2ccc(NC(=O)Nc3cc(Cl)cc(Cl)c3)cc2OC[C@H](C)NC[C@H]1C`, the AC50 was 14 µM. For `CCCN(C)C[C@@H]1OCCCC[C@H](C)Oc2ccc(NC(=O)Nc3ccc(C(F)(F)F)cc3)cc2C(=O)N([C@@H](C)CO)C[C@@H]1C`, the AC50 was 12.5 µM. `O=C(C[C@@H]1CC[C@@H]2[C@H](COC[C@H](O)CN2C(=O)Nc2cc(Cl)cc(Cl)c2)O1)N1CCOCC1` showed an AC50 of 6.6 µM. Work on `COc1ccc(S(=O)(=O)Nc2cccc3c2O[C@H](CN(C)Cc2ccc(Oc4ccccc4)cc2)[C@H](C)CN([C@@H](C)CO)C3=O)cc1` yielded an AC50 of 3.67 µM. In the case of `COc1ccccc1CNC(=O)C[C@@H]1CC[C@@H]2[C@H](COC[C@H](O)CN2C(=O)Nc2ccc(C(F)(F)F)cc2)O1`, the AC50 is reported as 0.614 µM. With `C[C@@H]1CN([C@@H](C)CO)C(=O)c2cc(NS(=O)(=O)c3cn(C)cn3)ccc2O[C@@H](C)CCCCO[C@@H]1CN(C)C(=O)Nc1ccc(C(F)(F)F)cc1` the AC50 was 5.78 µM. In the case of `COc1ccccc1CNC(=O)C[C@@H]1CC[C@@H]2[C@H](COC[C@@H](O)CN2C(=O)Nc2ccc(C(F)(F)F)cc2)O1`, the AC50 is reported as 1.6 µM. `COc1ccc(CN(C)C[C@@H]2OCCCC[C@H](C)Oc3ccc(NC(=O)Nc4ccc(C(F)(F)F)cc4)cc3C(=O)N([C@H](C)CO)C[C@@H]2C)cc1` was tested, and the AC50 was > 60 µM (inactive). `C[C@@H]1CN([C@H](C)CO)C(=O)c2cc(NC(=O)Nc3ccc(C(F)(F)F)cc3)ccc2O[C@@H](C)CCCCO[C@@H]1CN(C)CC1CCCCC1` was tested, and the AC50 was 14.6 µM. In the case of `O=C(Nc1ccc(-c2ccccc2)cc1)[C@H]1[C@H](CO)[C@H]2Cn3c(cccc3=O)[C@H]2N1CC1CCCCC1`, the AC50 is reported as > 60 µM (inactive). `C[C@H](NC(=O)C[C@@H]1CC[C@@H]2[C@H](COC[C@H](O)CN2C(=O)Nc2cccc(Cl)c2)O1)c1ccccc1` showed an AC50 of 14.4 µM. Work on `O=C(C[C@@H]1CC[C@H]2[C@@H](COC[C@@H](O)CN2C(=O)Nc2ccc(Cl)c(Cl)c2)O1)NCc1ccc(Cl)cc1` yielded an AC50 of 1.04 µM. With `C[C@H]1CN([C@@H](C)CO)C(=O)c2cc(C#CCc3ccccc3)cnc2O[C@@H]1CN(C)CC1CCCC1` the AC50 was 29.7 µM. In the case of `C[C@@H]1CN([C@H](C)CO)S(=O)(=O)c2ccc(C#CCC3CCCC3)cc2O[C@H]1CN(C)C`, the AC50 is reported as 16.9 µM. For `C[C@@H]1CN([C@@H](C)CO)C(=O)c2cc(NC(=O)C3CC3)ccc2O[C@@H]1CN(C)C(=O)Nc1ccc(C(F)(F)F)cc1`, the AC50 was 8.92 µM. `CNC[C@@H]1OCCCC[C@@H](C)Oc2ccc(NC(=O)Nc3ccc(C(F)(F)F)cc3)cc2C(=O)N([C@@H](C)CO)C[C@@H]1C` gave an AC50 of 17.5 µM. Work on `O=C(C[C@H]1CC[C@@H]2[C@H](COC[C@H](O)CN2C(=O)Nc2cc(Cl)cc(Cl)c2)O1)N1CCOCC1` yielded an AC50 of 9.61 µM. `O=C(C[C@@H]1CC[C@@H]2[C@H](COC[C@@H](O)CN2C(=O)Nc2ccc(C(F)(F)F)cc2)O1)NCCc1ccncc1` was tested, and the AC50 was 4.07 µM. With `C[C@@H]1CCCCO[C@@H](CN(C)CC2CCCCC2)[C@@H](C)CN([C@@H](C)CO)C(=O)c2cc(NC(=O)Nc3ccc(C(F)(F)F)cc3)ccc2O1` the AC50 was 10.7 µM. `C[C@@H]1CN([C@H](C)CO)C(=O)c2cccc(NC(=O)Nc3ccc(C(F)(F)F)cc3)c2O[C@@H]1CN(C)Cc1ccc(Oc2ccccc2)cc1` was tested, and the AC50 was 18.8 µM. Molecule `CO[C@H]1CN(C)C(=O)c2cc(NC(=O)Nc3ccc(Cl)c(Cl)c3)ccc2OC[C@@H](C)NC[C@@H]1C` has an AC50 of 4.39 µM. `O=C(NCC[C@@H]1CC[C@H](NC(=O)c2cccnc2)[C@@H](CO)O1)Nc1ccc(C(F)(F)F)cc1` gave an AC50 of 17 µM. `COc1ccccc1S(=O)(=O)N[C@@H]1C=C[C@@H](CC(=O)N2CCCCC2)O[C@H]1CO` was tested, and the AC50 was > 60 µM (inactive). In the case of `C[C@H](CO)N1C[C@H](C)[C@H](CN(C)C(=O)Nc2ccc(C(F)(F)F)cc2)Oc2c(NC(=O)Nc3ccccc3)cccc2C1=O`, the AC50 is reported as > 60 µM (inactive). Work on `CO[C@@H]1CN(C)C(=O)c2cc(NC(=O)Nc3cc(Cl)cc(Cl)c3)ccc2OC[C@H](C)NC[C@H]1C` yielded an AC50 of 5.04 µM. Molecule `O=C(C[C@@H]1CC[C@@H]2[C@H](COC[C@H](O)CN2C(=O)Nc2ccc(Cl)c(Cl)c2)O1)NCc1ccccc1` has an AC50 of 2.01 µM.
